The values that follow come from US12472185B2, “Methods for killing antibiotic tolerant bacteria” (THE PENN STATE RESEARCH FOUNDATION, priority 2020, dated 2025).

One experiment deals with S. aureus. The experiment is described as follows: LIVE/DEAD staining. The note with it: 100 μM, 1 hr. It is filed as cell-based, Staphylococcus aureus. Here is the method: FIG. 4. NPIMA lyses Escherichia coli, Pseudomonas aeruginosa, and Staphylococcus aureus. LIVE/DEAD staining of (a) E. coli BW25113 after 0.75 hr, (b) P. aeruginosa PA14 after 1 hr, and (c) S. aureus after 1 hr treatment with NPIMA at 100 μM. […] White arrows indicate lysed cells. Representative images are shown. Scale bar=[…]. NPIMA, 5-nitro-3-phenyl-1H-indol-2-ylmethylamine hydrochloride.
Cell viability after treating with NPIMA was determined using the using the LIVE/DEAD BacLight Bacterial Viability Kit (catalog number, L7012; Molecular Probes, Inc., Eugene, OR). The fluorescence signal was analyzed via a Zeiss Axioscope.A1 using excitation at 485 nm and emission at 530 nm for green fluorescence and using excitation at 485 nm and emission at 630 nm for red fluorescence.

The test system of the next experiment is E. coli BW25113. The experiment is described as follows: Transmission electron microscopy (TEM). It counts as cell-based, Escherichia coli. The note with it: 100 μM. The protocol:
FIG. 6. NPIMA damages the Escherichia coli cell membrane. Transmission electron microscopic (TEM) images of E. coli BW25113 after NPIMA (100 μM) treatment for 40 min. Two representative images are shown. The arrow indicates membrane damage. NPIMA, 5-nitro-3-phenyl-1H-indol-2-ylmethylamine hydrochloride.
For transmission electron microscopy (TEM), E. coli BW25113 was grown to a turbidity of 0.8 at OD600, contacted with NPIMA at 100 μM for 0.75 hr in PBS, centrifuged at 8000 g, and resuspended in PBS. The samples were fixed with buffer (2.5% glutaraldehyde in 0.1M cacodylate buffer, pH 7.4) and negative stained with 2% uranyl acetate in the dark for 1 hr, then dehydrated. The sectioned specimens were stained again with uranyl acetate and lead citrate after dehydration and resin embedded. TEM images were obtained using a JEOL JEM 1200 EXII instrument.

For experiment [1], the system named is P. aeruginosa PA14 persister cells. As to the kind of experiment: Survival of persister cells (CCCP/ciprofloxacin generated). It is filed as cell-based, Pseudomonas aeruginosa. The note with it: 100 μM. Here is the method: FIG. 3. NPIMA kills Escherichia coli, Pseudomonas aeruginosa, persister cells. Survival of (a) E. coli BW25113 and (b) P. aeruginosa PA14 after treatment with NPIMA (100 μM), 5-iodoindole (5-II, 100 μM), and DMSO for 6 hr. Asterisk indicates no viable cells detected. DMSO, dimethyl sulfoxide; NPIMA, 5-nitro-3-phenyl-1H-indol-2-yl-methylamine hydrochloride.
E. coli persister cells were prepared following our previous method (Kim, Yamasaki, et al., 2018; Kwan, Valenta, Benedik, & Wood, 2013). Exponentially-growing cells (turbidity of 0.8 at 600 nm) were treated with rifampicin (100 μg/ml for 30 min) to stop transcription, washed, and any remaining nonpersister cells were lysed by ampicillin in LB (100 μg/ml for 3 hr). Cells were harvested by centrifugation (17,000 g for 1 min) and washed with 1× phosphate-buffered saline buffer (PBS, 8 g NaCl, 0.2 g KCl, 1.15 g Na2HPO4, and 0.2 g KH2PO4 per 1,000 ml) twice to remove all possible carbon sources, then resuspended with 1×PBS. […]
For bacterial viability, cells were washed twice with 0.85% NaCl, resuspended in 1×PBS, and cell counts were determined via the drop assay (Donegan, Matyac, Seidler, & Porteous, 1991). […] Cell viability was determined via a cell counting kit (CCK-8 Kit, ab228554; Abcam), and cytotoxicity was determined via the lactate dehydrogenase (LDH) assay (LDH Assay Kit, MK401; Takara).

`Cl.NCc1[nH]c2ccc([N+](=O)[O-])cc2c1-c1ccccc1` [NPIMA, [(5-nitro-3-phenyl-1H-indol-2-yl)methyl]amine hydrochloride]: the “cells killed (LIVE/DEAD)” value with S. aureus is given as 27%. In the experiment on E. coli BW25113, the “cell envelope damage by TEM” value was “clear cell envelope damage”. The “time to eradicate P. aeruginosa persister cells” value in experiment [1] stood at 3 h.
